{"source": "paper PMC5361737", "about": "“Potent and Selective KDM5 Inhibitor Stops Cellular Demethylation of H3K4me3 at Transcription Start Sites and Proliferation of MM1S Myeloma Cells” (Cell Chemical Biology, 2017)", "key": {"KDM4C": {"target": "T1, KDM4C (Homo sapiens, UniProt Q9H3R0)", "T1 sequence (Q9H3R0 1-1056)": "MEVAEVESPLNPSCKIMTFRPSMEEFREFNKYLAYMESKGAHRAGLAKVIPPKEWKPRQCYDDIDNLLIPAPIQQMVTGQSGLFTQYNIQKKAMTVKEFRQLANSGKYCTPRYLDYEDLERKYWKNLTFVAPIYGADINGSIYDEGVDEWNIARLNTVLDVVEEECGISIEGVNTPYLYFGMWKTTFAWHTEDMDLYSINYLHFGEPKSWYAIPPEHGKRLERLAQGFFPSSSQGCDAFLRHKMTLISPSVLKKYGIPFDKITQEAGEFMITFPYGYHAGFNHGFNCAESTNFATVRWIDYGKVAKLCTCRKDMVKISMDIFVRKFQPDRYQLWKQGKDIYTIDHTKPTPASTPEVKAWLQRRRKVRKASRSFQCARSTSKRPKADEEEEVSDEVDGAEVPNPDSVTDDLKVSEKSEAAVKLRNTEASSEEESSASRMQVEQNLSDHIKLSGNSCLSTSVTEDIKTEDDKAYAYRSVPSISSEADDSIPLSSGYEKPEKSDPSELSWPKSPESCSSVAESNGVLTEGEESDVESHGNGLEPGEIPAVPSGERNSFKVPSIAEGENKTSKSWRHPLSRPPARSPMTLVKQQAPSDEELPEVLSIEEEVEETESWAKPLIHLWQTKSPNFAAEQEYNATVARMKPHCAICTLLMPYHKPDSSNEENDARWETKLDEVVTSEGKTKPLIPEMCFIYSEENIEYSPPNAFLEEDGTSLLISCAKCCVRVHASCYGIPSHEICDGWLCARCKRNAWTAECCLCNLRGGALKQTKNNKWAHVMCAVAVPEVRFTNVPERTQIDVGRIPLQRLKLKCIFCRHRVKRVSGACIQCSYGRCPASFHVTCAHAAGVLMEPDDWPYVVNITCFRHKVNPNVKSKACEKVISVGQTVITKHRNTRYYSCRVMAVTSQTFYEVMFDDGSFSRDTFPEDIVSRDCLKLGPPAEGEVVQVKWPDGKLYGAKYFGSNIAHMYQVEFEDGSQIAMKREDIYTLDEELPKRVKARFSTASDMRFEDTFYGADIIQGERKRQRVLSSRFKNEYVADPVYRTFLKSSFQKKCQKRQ", "assay": "2-Oxoglutarate oxygenase assay panel, AlphaScreen assay", "format": "biochemical", "conditions": "AlphaScreen assay; ± SEM"}, "[1]": {"tested_on": "KDM5A and KDM5C (other KDM5 family members)", "assay": "IF assay, HeLa cells overexpressing the other KDM5 family members", "format": "cell-based, human", "conditions": "overexpression IF assay, 24 hr, read-out: inhibitory concentration, other KDM5 family members", "source_text": "The human cervical carcinoma cell line HeLa was obtained from the American Type Cultures Collection and maintained in Eagle's minimal essential media (Sigma-Aldrich) supplemented with 10% heat-inactivated fetal bovine serum (Life Technologies). Full-length cDNA for KDM5B (JARID1B, Q9UGL1, cDNA), KDM5C (JARID1C, P41229, IMAGE 5492114), KDM4B (JMJD2B, O94953, gift from ICR), KDM4C (JMJD2C, Q9H3R0, 8143862), KDM3A (JMJD1A, Q9Y4C1, 4823253), KDM2A (FBXL11, Q9Y2K7, 5534384), and KDM6B (JMJD3, O15054, cDNA) were amplified by PCR from either an MGC clone or a commercial cDNA source, or received as a gift from collaborators and cloned into pDONR-221 vector using Gateway BP reaction producing Gateway entry clones.\n[…]. Mutations were introduced into full-length KDM Gateway entry clones using 15 cycles of the QuikChange II PCR protocol (Agilent Technologies). […]\nIn brief, cells were transiently transfected with either the FLAG-tagged WT or mutant demethylase described above, using Lipofectamine 2000 (Life Technologies). […] After the DAPI-stained nuclei were automatically identified, a minimum threshold for anti-FLAG intensity was set so that only cells highly expressing the demethylase were analyzed. […]"}, "[2]": {"tested_on": "endogenous KDM5 demethylases", "assay": "IF assay of endogenous H3K4me3 in untransfected HeLa cells", "format": "cell-based, human", "conditions": "48 hr", "protocol": "In brief, cells were transiently transfected with either the FLAG-tagged WT or mutant demethylase described above, using Lipofectamine 2000 (Life Technologies). Four hours after transfection the cells were treated with serial dilutions of compound for 24 hr. The cells were subsequently fixed and stained with an anti-FLAG antibody (Sigma F3165) as well as an anti-methylated histone antibody (H3K4me3 Diagenode C15410003, H3K9me2 Abcam ab1220, H3K9me3 Abcam ab8898, H3K27me3 Millipore 07–449, or H3K36me2 Active Motif 61019). The secondary antibodies were labeled with either Alexa Fluor 488 or 568 (Life Technologies). Image acquisition was conducted using the Operetta High Content Imaging System (PerkinElmer) and image analysis was performed with the Columbus software (PerkinElmer). After the DAPI-stained nuclei were automatically identified, a minimum threshold for anti-FLAG intensity was set so that only cells highly expressing the demethylase were analyzed. Assays assessing the endogenous H3K4me3 methyl mark changes were performed accordingly without overexpressing KDM5 after compounds treatment for 48 hr.\nFigure S1 related to Figure 2 Inhibition of KDM4/5 mediated H3K4me3\n(A) EC50 curves of KDOAM-20, KDOAM-21 and KDOAM-32 in KDM5B and KDM4C (B)\nand KDOAM-32 in untransfected HeLa cells.\n(1 picture or pasted object on this page, not shown here)"}, "[3]": {"assay": "Liver microsomes stability", "format": "in vitro ADME", "conditions": "mouse liver microsomes"}, "[4]": {"assay": "Chemical stability in Phosphate Buffer Saline", "format": "physicochemical", "conditions": "PBS, 37°C, 24 hr"}, "MM1S cells": {"tested_on": "MM1S cells", "assay": "Cell-cycle analysis", "format": "cell-based, human"}, "BZD (central)": {"tested_on": "BZD (central)", "assay": "Cerep Express Panel, agonist radioligand", "format": "binding"}, "H2 (h)": {"target": "H2 (h) (Homo sapiens, UniProt P25021)", "sequence (P25021 whole entry)": "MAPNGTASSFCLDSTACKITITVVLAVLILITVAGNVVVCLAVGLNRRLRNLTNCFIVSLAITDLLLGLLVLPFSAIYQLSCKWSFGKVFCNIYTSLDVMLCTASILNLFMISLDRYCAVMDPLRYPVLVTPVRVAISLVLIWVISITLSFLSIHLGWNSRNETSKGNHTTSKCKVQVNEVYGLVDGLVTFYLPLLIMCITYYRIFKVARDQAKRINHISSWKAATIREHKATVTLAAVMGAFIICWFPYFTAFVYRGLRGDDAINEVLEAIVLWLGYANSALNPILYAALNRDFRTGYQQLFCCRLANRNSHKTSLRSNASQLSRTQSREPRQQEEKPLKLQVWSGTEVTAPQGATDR", "assay": "Cerep Express Panel, antagonist radioligand", "format": "binding", "conditions": "read-out: % Inhibition of reference (10 µM)"}}}
{"smiles": "CCN(CCN(C)C)C(=O)CNCc1cc(C(N)=O)ccn1", "note": "[KDOAM-25]", "values": [{"measurement": "pIC50 KDM4 C", "setting": "KDM4C", "value": "5.3 ± 0.28"}, {"measurement": "IC50", "setting": "[1]", "value": "> 100", "unit": "µM"}, {"measurement": "inhibition of endogenous KDM5 demethylases, potency in words", "setting": "[2]", "value": "potencies similar to those seen in the overexpression assay"}, {"measurement": "intrinsic clearance, in words", "setting": "[3]", "value": "low intrinsic clearance"}, {"measurement": "microsomal CLint", "setting": "[3]; read-out: MLM Clint", "value": 8.42, "unit": "µL/min/mg"}, {"measurement": "hydrolysis of the amide, in words", "setting": "[4]", "value": "did not show any hydrolysis"}, {"measurement": "cell-cycle effect", "setting": "MM1S cells", "value": "G1 cell-cycle arrest"}, {"measurement": "% Inhibition of reference (10 µM)", "setting": "BZD (central)", "value": -42, "unit": "%"}, {"measurement": "inhibition at 10 µM", "setting": "H2 (h)", "value": -16, "unit": "%"}]}
